Reference: patent publication US20240091217A1, “STABLE PHARMACEUTICAL ORAL LIQUID FORMULATION OF AN ANTISPASMODIC AGENT” (priority 2022, published 2024)

What was measured:
[1] = Degradation of Drotaverine HCl under stress conditions; format: physicochemical; conditions: alkaline medium, higher oxidative stress conditions, presence of light
From the text: In some embodiments, the disclosed formulations employ very few excipients, all of which are completely safe for pediatric patients, economical, and readily available.

[2] = Solubilizing Drotaverine HCl in dispersion media of sorbitol liquid, glycerin and water, storage; format: physicochemical; conditions: glycerin, water 1:1:1 to 3:2:1, no stabilizing agent
From the text: The inventors of the present disclosure tried solubilizing Drotaverine HCl in a ratio of dispersion media containing sorbitol liquid, glycerin, and water ranging from 1:1:1 to 3:2:1, respectively. […] To obtain a physically and chemically stable product with good shelf life, the present inventors resolved this precipitation of Drotaverine in the proposed dispersion media. In order to avoid the precipitation of Drotaverine, the present inventors added a stabilizing agent to the dispersion media.

[3] = cited from earlier work
[4] = cited from earlier work; remark: listed apart in the source

In the case of `CCOc1ccc(C=C2NCCc3cc(OCC)c(OCC)cc32)cc1OCC` [Drotaverine, 1-[(3,4-diethoxyphenyl)methylene]-6,7-diethoxy-1,2,3,4-tetrahydroisoquinoline], the degradation [1] is listed as “degrades extensively”, the precipitation on storage [2] is listed as “re-precipitated on storage” and the onset of action ([3]; after oral administration of 80 mg strength IR tablets) is listed as at most 12 min. The “renal clearance as share of the total plasma clearance” value ([3]; humans, Drotaverine IR tablets 80 mg) was 0.31+/−0.13%, the “Absolute bioavailability (range)” value ([3]; humans, oral, subject dependent) was 24.5-91% and the “Absolute bioavailability, mean (mean+/-SD)” value ([3]; humans, oral) was 58.2+/−18.2%. The “oral LD50” value [4] was over 1000 mg/Kg body weight.
